Measured values reported in ChEMBL document CHEMBL3727357, “Compositions and methods for inhibiting g protein signaling” (2010).
Active and inactive are the calls of the source. The rule behind the calls is not given here.

Assays:
Mus musculus [1] = assay: Potentiation of morphine-induced antinociceptive activity in PLCbeta3-deficient ICR mouse at 100 nmol, icv after 20 mins by tail flick test; format: functional, organism-based
Mus musculus [2] = assay: Increase in survival of cardiac-specific calsequestrin mouse with dilated cardiomyopathy at 100 mg/kg, ip qd; format: functional, organism-based; details: Heart
[3] = target: T1, Guanine nucleotide-binding protein G(I)/G(S)/G(T) subunit beta-1/gamma-2 (Homo sapiens, UniProt P62873+P59768); assay: Inhibition of biotinylated Gbeta1gamma2 (unknown origin) binding to PLCbeta3 at 10 uM incubated for 16 hrs; format: protein-complex assay
HL-60 [4] = assay: Binding affinity to Gbetagamma in human HL60 cells assessed as inhibition of fMLP-stimulated GFP-PHAkt translocation to plasma membrane at 10 uM incubated for 5 mins prior to fMLP stimulation by Western blot analysis; format: cell-based
Mus musculus [5] = organism: Mus musculus; assay: Inhibition of Gbetagamma-mediated GRK2 recruitment in mouse cardiomyocytes assessed as cAMP generation at 10 uM treated for 5 mins; format: functional, cell-based
[6] = target: Delta-type opioid receptor (Homo sapiens) (UniProt P41143); assay: Inhibition of human Gbetagamma-dependent delta opioid receptor-mediated PLC activation expressed in CHO cells assessed as reduction of Deltorphin 2-mediated total inositol phosphate production at 10 uM after 30 mins by scintillation counting analysis in presence of [3H]inositol; format: functional, cell-based
Mus musculus [7] = assay: Potentiation of morphine-induced antinociceptive activity in ICR mouse assessed as morphine ED50 at 100 mg/kg, ip after 20 mins by tail flick test (reference value: 5 mg/kg); format: functional
HL-60 [8] = assay: Antiinflammatory activity in differentiated human HL60 cells assessed as inhibition of fMLP-stimulated chemotaxis by transwell assay; format: functional, cell-based
[9] = target: T1, Guanine nucleotide-binding protein G(I)/G(S)/G(T) subunit beta-1/gamma-2; assay: Inhibition of biotinylated Gbeta1gamma2 (unknown origin) binding to PLCbeta2 at 10 uM incubated for 16 hrs; format: protein-complex assay
[10] = target: Mu-type opioid receptor (Homo sapiens) (UniProt P35372); assay: Inhibition of human Gbetagamma-dependent mu opioid receptor-mediated PLC activation expressed in CHO cells assessed as reduction of DAMGO-mediated total inositol phosphate production at 10 uM after 30 mins by scintillation counting analysis in presence of [3H]inositol; format: functional, cell-based
[11] = Effect on differentiated human HL60 cell motility at 10 uM after 1 hr by Boyden chamber method; format: ADME, cell-based; details: hl-60, 1 h
Neutrophil [12] = assay: Antiinflammatory activity in primary human neutrophils assessed as inhibition of fMLP-stimulated chemotaxis at 10 uM after 1 hr by Boyden chamber method; format: functional, cell-based
CHO [13] = assay: Reduction of DPDPE-mediated total inositol phosphate production in CHO cells expressing human mu opioid receptor at 10 uM after 30 mins by scintillation counting analysis in presence of [3H]inositol; format: functional, cell-based; details: Cricetulus griseus
Mus musculus [14] = assay: Toxicity in C57/B16 mouse assessed as effect on cardiac morphology at 100 mg/kg, ip qd administered for 7 days by post-mortem test; format: organism-based; details: in vivo, 168 h
CHO [15] = assay: Reduction of U50,488-mediated total inositol phosphate production in CHO cells expressing human mu opioid receptor at 10 uM after 30 mins by scintillation counting analysis in presence of [3H]inositol; format: functional, cell-based; details: Cricetulus griseus
Mus musculus [16] = assay: Inhibition of isoproterenol-mediated decrease in cardiac function in C57/B16 mouse acute model of heart failure at 100 mg/kg, ip qd administered for 7 days by conscious echocardiography; format: functional, organism-based
Mus musculus [17] = assay: Inhibition of isoproterenol-mediated decrease in cardiac morphology in C57/B16 mouse acute model of heart failure at 100 mg/kg, ip qd administered for 7 days by post-mortem test; format: functional, organism-based
HL-60 [18] = assay: Antiinflammatory activity in differentiated human HL60 cells assessed as inhibition of fMLP-stimulated cell migration at 10 uM after 1 hr by Boyden chamber method; format: functional, cell-based
HL-60 [19] = assay: Binding affinity to Gbetagamma in human HL60 cells assessed as inhibition of fMLP-stimulated Ca2+ release at 10 uM incubated for 5 mins prior to fMLP stimulation by Fura2-AM dye-based assay; format: cell-based
[20] = Reduction of membrane associated GRK2 level in mouse cardiomyocytes; format: ADME, cell-based; details: cardiomyocyte
Mus musculus [21] = assay: Downregulation of GRK2 expression in […] mouse acute model of heart failure at 100 mg/kg, ip qd administered for 7 days by immunoblot analysis; format: functional, organism-based
HL-60 [22] = assay: Binding affinity to Gbetagamma in human HL60 cells assessed as inhibition of fMLP-stimulated GRK2 translocation at 10 uM incubated for 5 mins prior to fMLP stimulation by Western blot analysis; format: cell-based
Mus musculus [23] = organism: Mus musculus; assay: Inhibition of Gbetagamma in mouse cardiomyocytes assessed as reduction of agonist-stimulated beta adrenergic receptor-mediated GRK2 recruitment to membrane; format: cell-based
CHO [24] = assay: Inhibition of human Gbetagamma-dependent kappa opioid receptor-mediated PLC activation expressed in CHO cells assessed as reduction of U50,488-mediated total inositol phosphate production at 10 uM after 30 mins by scintillation counting analysis in presence of [3H]inositol; format: cell-based
Mus musculus [25] = assay: Improvement of cardiac dysfunction in cardiac-specific calsequestrin mouse with dilated cardiomyopathy at 100 mg/kg, ip qd in presence of beta adrenergic receptor blocker metoprolol; format: functional, organism-based; details: Heart
Mus musculus [26] = assay: Improvement of cardiac dysfunction in cardiac-specific calsequestrin mouse with dilated cardiomyopathy at 100 mg/kg, ip qd; format: functional, organism-based; details: Heart
Mus musculus [27] = assay: Toxicity in C57/B16 mouse assessed as overt toxic effect at 250 mg/kg/day administered for 2 weeks; format: organism-based; details: in vivo, 336 h
Mus musculus [28] = organism: Mus musculus; assay: Inhibition of Gbetagamma-GRK2 interaction in mouse cardiomyocytes assessed as increase in contractility; format: cell-based
Mus musculus [29] = organism: Mus musculus; assay: Inhibition of Gbetagamma-mediated GRK2 recruitment in mouse cardiomyocytes assessed as isoproterenol-induced cAMP generation at 10 uM pretreated for 5 mins followed by isoproterenol induction measured after 15 mins; format: functional, cell-based
Neutrophil [30] = assay: Antiinflammatory activity in primary human neutrophils assessed as inhibition of IL8-stimulated chemotaxis at 10 uM after 1 hr by Boyden chamber method; format: functional, cell-based
Mus musculus [31] = assay: Increase in survival of cardiac-specific calsequestrin mouse with dilated cardiomyopathy at 100 mg/kg, ip qd in presence of beta adrenergic receptor blocker metoprolol; format: functional, organism-based; details: Heart
[32] = target: Mu-type opioid receptor (Homo sapiens) (UniProt P35372); assay: Inhibition of human Gbetagamma-dependent mu opioid receptor-mediated PLC activation expressed in CHO cells assessed as reduction of morphine-mediated total inositol phosphate production at 10 uM after 30 mins by scintillation counting analysis in presence of [3H]inositol; format: functional, cell-based
Mus musculus [33] = organism: Mus musculus; assay: Inhibition of Gbetagamma-GRK2 interaction in mouse cardiomyocytes assessed as increase in contractility in presence of beta adrenergic receptor antagonist propranolol; format: cell-based
Neutrophil [34] = assay: Antiinflammatory activity in primary human neutrophils assessed as inhibition of GM-CSF-stimulated chemotaxis at 1 uM after 1 hr by Boyden chamber method; format: functional, cell-based
Mus musculus [35] = assay: Antinociceptive activity in ICR mouse at 100 nmol, icv after 20 mins by tail flick test relative to control; format: functional, organism-based
HEK293 = assay: Effect on carbachol-dependent Ca2+ release in HEK293 cells expressing M3 muscarinic receptor at 10 uM; format: functional, cell-based; details: Homo sapiens
HL-60 [36] = assay: Effect on fMLP-stimulated ERK1/2 phosphorylation in human HL60 cells at 10 uM incubated for 5 mins prior to fMLP stimulation by Western blot analysis; format: functional, cell-based
Mus musculus [37] = organism: Mus musculus; assay: Inhibition of Gbetagamma-GRK2 interaction in mouse cardiomyocytes assessed as increase in isoproterenol-induced contractility in presence of beta adrenergic receptor antagonist propranolol; format: cell-based
Mus musculus [38] = assay: Toxicity in C57/B16 mouse assessed as effect on cardiac function at 100 mg/kg, ip qd administered for 7 days by conscious echocardiography; format: organism-based; details: in vivo, 168 h
CHO [39] = assay: Effect on total inositol phosphate production in CHO cells expressing human mu opioid receptor at 10 uM after 30 mins by scintillation counting analysis in presence of [3H]inositol; format: ADME, cell-based, Cricetulus griseus; details: chinese hamster, 0.5 h
HL-60 [40] = assay: Binding affinity to Gbetagamma in differentiated human HL60 cells assessed as inhibition of fMLP-stimulated Rac1 activation at 10 uM preincubated for 10 mins followed by fMLP challenge for 90 secs by Western blot analysis; format: cell-based
[41] = target: Delta-type opioid receptor (Homo sapiens) (UniProt P41143); assay: Inhibition of human Gbetagamma-dependent delta opioid receptor-mediated PLC activation expressed in CHO cells assessed as reduction of DPDPE-mediated total inositol phosphate production at 10 uM after 30 mins by scintillation counting analysis in presence of [3H]inositol; format: functional, cell-based
Mus musculus [42] = assay: Inhibition of isoproterenol-mediated interstitial cardiac fibrosis in C57/B16 mouse acute model of heart failure at 100 mg/kg, ip qd administered for 7 days by post-mortem test; format: functional, organism-based
Mus musculus [43] = organism: Mus musculus; assay: Inhibition of Gbetagamma-GRK2 interaction in mouse cardiomyocytes assessed as increase in isoproterenol-induced contractility; format: cell-based
HL-60 [44] = assay: Binding affinity to Gbetagamma in differentiated human HL60 cells assessed as inhibition of fMLP-stimulated superoxide production at 10 uM preincubated for 10 mins followed by nitro blue tetrazolium addition for 5 mins and fMLP addition for 30 mins by NADPH oxidase assay; format: cell-based

Mu-type opioid receptor (Homo sapiens), sequence (P35372 whole entry): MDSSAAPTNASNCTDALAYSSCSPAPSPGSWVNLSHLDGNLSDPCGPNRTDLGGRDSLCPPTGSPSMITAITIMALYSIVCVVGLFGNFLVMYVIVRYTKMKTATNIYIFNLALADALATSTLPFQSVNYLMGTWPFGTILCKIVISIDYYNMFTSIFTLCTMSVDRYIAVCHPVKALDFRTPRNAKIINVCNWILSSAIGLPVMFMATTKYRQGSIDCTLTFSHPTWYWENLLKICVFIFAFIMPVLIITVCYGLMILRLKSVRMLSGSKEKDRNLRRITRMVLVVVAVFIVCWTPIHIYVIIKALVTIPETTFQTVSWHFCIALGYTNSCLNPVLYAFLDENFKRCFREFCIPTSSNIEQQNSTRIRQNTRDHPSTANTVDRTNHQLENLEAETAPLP
T1 sequence (P59768 2-71 partner limits assumed): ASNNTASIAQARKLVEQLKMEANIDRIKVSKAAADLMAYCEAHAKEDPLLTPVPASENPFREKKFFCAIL
T1 sequence (P62873 2-340 limits assumed): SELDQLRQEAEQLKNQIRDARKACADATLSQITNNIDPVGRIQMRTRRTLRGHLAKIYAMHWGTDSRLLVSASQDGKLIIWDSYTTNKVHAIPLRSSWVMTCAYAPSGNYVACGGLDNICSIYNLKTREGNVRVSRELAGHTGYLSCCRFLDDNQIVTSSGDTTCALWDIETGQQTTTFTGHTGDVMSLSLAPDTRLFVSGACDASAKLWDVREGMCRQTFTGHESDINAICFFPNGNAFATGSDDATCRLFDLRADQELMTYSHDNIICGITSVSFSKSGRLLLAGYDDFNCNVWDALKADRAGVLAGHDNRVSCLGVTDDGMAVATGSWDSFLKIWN
Delta-type opioid receptor (Homo sapiens), sequence (P41143 whole entry): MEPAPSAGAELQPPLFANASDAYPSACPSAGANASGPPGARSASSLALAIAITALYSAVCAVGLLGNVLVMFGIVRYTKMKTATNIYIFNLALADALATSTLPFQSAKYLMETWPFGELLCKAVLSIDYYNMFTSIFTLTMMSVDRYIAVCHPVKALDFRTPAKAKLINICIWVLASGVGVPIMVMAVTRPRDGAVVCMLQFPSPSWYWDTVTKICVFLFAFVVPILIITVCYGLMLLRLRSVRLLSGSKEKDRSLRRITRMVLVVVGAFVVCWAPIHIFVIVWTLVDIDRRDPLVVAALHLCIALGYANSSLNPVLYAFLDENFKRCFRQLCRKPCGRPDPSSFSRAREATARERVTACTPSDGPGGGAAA

In the case of `O=C(O)C1CCCCC1c1c2ccc(=O)c(O)c-2oc2c(O)c(O)ccc12` (stereo not given), the Activity (Mus musculus [1]) is reported as “inactive”, the Activity (Mus musculus [2]) is reported as “Active” and the inhibition [3] is reported as “Active”. For the same molecule, the inhibition (HL-60 [4]) was “Active”, the inhibition (Mus musculus [5]) was “Active” and the inhibition [6] was “inactive”. The ED50 (Mus musculus [7]) was 1.3 mg/kg, the inhibition (HL-60 [8]) was “inactive” and the inhibition [9] was “Active”. The inhibition [10] was “Active”, the Activity [11] was “Non-toxic” and the inhibition (Neutrophil [12]) was “Active”. For the same molecule, the Activity (CHO [13]) was “inactive”, the Activity (Mus musculus [14]) was “Non-toxic” and the Activity (CHO [15]) was “inactive”. The inhibition (Mus musculus [16]) was “Active”, the inhibition (Mus musculus [17]) was “Active” and the inhibition (HL-60 [18]) was “Active”. The inhibition (HL-60 [19]) was “Active”, the Activity [20] was “Non-toxic” and the Activity (Mus musculus [21]) was “Active”. For the same molecule, the inhibition (HL-60 [22]) was “Active”, the inhibition (Mus musculus [23]) was “Active” and the inhibition (CHO [24]) was “inactive”. The Activity (Mus musculus [25]) was “Active”, the Activity (Mus musculus [26]) was “Active” and the Activity (Mus musculus [27]) was “Non-toxic”. For the same molecule, the inhibition (Mus musculus [28]) was “Active”, the inhibition (Mus musculus [29]) was “Active” and the inhibition (Neutrophil [30]) was “Active”. For the same molecule, the Activity (Mus musculus [31]) was “Active”, the inhibition [32] was “Active” and the inhibition (Mus musculus [33]) was “inactive”. For the same molecule, the inhibition (Neutrophil [34]) was “inactive”, the Activity (Mus musculus [35]) was “inactive” and the Activity (HEK293) was “inactive”. The Activity (HL-60 [36]) was “inactive”, the inhibition (Mus musculus [37]) was “inactive” and the Activity (Mus musculus [38]) was “Non-toxic”. For the same molecule, the Activity (CHO [39]) was “Non-toxic”, the inhibition (HL-60 [40]) was “Active” and the inhibition [41] was “inactive”. For the same molecule, the inhibition (Mus musculus [42]) was “Active”, the inhibition (Mus musculus [43]) was “Active” and the inhibition (HL-60 [44]) was “Active”.
